# Key:
# [1] = system: transcriptional activity of NRF2; assay: ARE luciferase reporter assay in MCF-7 c32 ARE-LUC cells; format: cell-based; settings: 9 μM, 16 h
# Description: FIG. 4. […] MEFs in serum-depleted conditions were subjected to (A-C) 1 μM, 3 μM, or 10 μM of PHAR and 10 μM of SFN as a positive control for 16 h; or (D-F) 10 μM of PHAR for the indicated times. In both experiments, 0.1% DMSO was used as a vehicle. A), representative immunoblots of NRF2, HO1, KEAP1, LAMINB, and GAPDH as loading controls. B) and C), densitometric analysis of NRF2 and HO1 protein levels of the representative immunoblots depicted in (A), expressed as a ratio of NRF2/LAMINB or HO1/GAPDH. The data is depicted as means±SEM (n=3). Statistical analysis was performed with one-way ANOVA followed by the Bonferroni test to check inter-group differences. *p<0.05; ***p<0.001 vs. 0. D), representative immunoblots of NRF2, HO1, KEAP1, LAMINB, and GAPDH as loading controls. E) and F), Densitometric analysis of NRF2 and HO1 protein levels of the representative immunoblots of (D), expressed as a ratio of NRF2/LAMINB or HO1/GAPDH. The data is depicted as means±SEM (n=3). Statistical analysis was performed with one-way ANOVA followed by the Bonferroni test to check inter-group differences. *p<0.05; ***p<0.001 vs. 0. […] Luciferase activity was measured after 16 h of treatment. […] The mRNA levels of Hmox1, Nqo1, Aox1, Glc, and Gclm after 8 h of treatment were determined by means of pRT-PCR and normalized by means of average LaminB, Gapdh, and β-actin. […]
# STAM mice (NAFLD) = assay: STAM fatty liver model, treatment from NASH stage (week 8) to week 10; format: in vivo, mouse
# Text: FIG. 13. PHAR slows fatty liver progression. The progressive damage of liver cells as a consequence of their metabolic alteration and chronic low-grade inflammation leads to their progression towards fibrosis and the consequent loss of liver function. The present invention makes it possible to treat patients diagnosed with fatty liver to prevent its progression towards more severe forms of liver disease such as fibrosis and cirrhosis. A) Scheme of the liver damage progression model. B) Representative spectra derived from MRI studies. At starting point (week 8; W8, NASH inflammation), mice subjected to the STAM protocol had fatty liver imitating the status of newly diagnosed patients. At this point, treatment with PHAR (50 mg/kg i.p; 5 days per week) began until week 10 (W10, fibrosis). C) standardized quantification of the amount of liver fat per mouse measured by MRI. Statistical analysis was performed using a two-way ANOVA followed by a Bonferroni test to compare the differences between treatments in control and STAM groups. **p<0.01. D) profiles of evolution of the amount of liver fat per mouse measured by MRI at week 8 (NASH) and week 10 (fibrosis). E) H&E histochemical analysis of mice treated with PHAR vs vehicle in control mice and in STAM mice together with oil red staining for determination of liver fat levels. F) levels of transcripts corresponding to the metabolism of fatty acids (Cpt1a, Scd1, Cd36 and Fasn). G) Levels of transcripts corresponding to pro-inflammatory cytokines (Tnf, Il6 and Infg) and anti-inflammatory (Il10 and Il4). For F and G, relative mRNA levels were determined by qRT-PCR and normalized by averaging Gapdh, Tbp, and β-actin. Statistical analysis was performed using a bidirectional ANOVA followed by a Bonferroni test to compare the differences between PHAR-treated mice vs vehicle-treated mice in the control and STAM models. *p<0.05; ***p<0.001.
# After seeing the beneficial role of PHAR in the prevention of NASH, we analyzed its role in progression of liver damage. The progressive damage of hepatocytes is a consequence of their metabolic alteration and chronic low-grade inflammation and oxidative stress (FIG. 13A). We treated mice in the NASH stage (week 8), 5 days a week with an IP dose of 50 mg/kg PHAR until week 10. The analysis of fat accumulation was measured by MRI both at the initial point of treatment and at the end point (FIG. 13B). Vehicle-treated STAM mice underwent a progressive accumulation of lipids. […] Therefore, PHAR reduces low-grade chronic inflammation and liver fat accumulation.
# [2] = STAM mice, week 8 to week 10, liver mRNA
smiles,measurement,setting,value
O=C1[C@@H]2[C@H](Cc3c[nH]c4ccccc34)N[C@]3(C(=O)Nc4ccc(Cl)cc43)[C@@H]2C(=O)N1c1ccc2c(c1)OCCO2 [PHAR],increase in luciferase activity,[1],~4 fold
same,liver fat (oil red staining),"STAM mice (NAFLD); STAM mice, week 8 to week 10, IP 50 mg/kg",protection against liver fat accumulation
same,lipid accumulation in liver by MRI,"STAM mice (NAFLD); STAM mice, week 8 to week 10, IP 50 mg/kg 5 days a week",significant protection against lipid accumulation
same,expression of Cpt1a (lipid catabolism),STAM mice (NAFLD); [2],increasing the expression of Cpt1a
same,expression of Fasn (lipid synthesis),STAM mice (NAFLD); [2],decrease in the expression of Fasn
same,expression of anti-inflammatory cytokines,STAM mice (NAFLD); [2],promotes an increase in anti-inflammatory cytokines
same,expression of pro-inflammatory cytokines,STAM mice (NAFLD); [2],attenuates the expression of pro-inflammatory cytokines
same,liver histology (H&E),"STAM mice (NAFLD); control and STAM mice, week 8 to week 10, IP 50 mg/kg",normal liver histology

# Source: patent US12590100B2, “Tetrahydro-spiroindoline-pyrrolopyrrole-triones inhibitors of the NRF2-β-TrCP interaction for use in the treatment of fatty liver disease” (Universidad Autonoma De Madrid, priority 2021, dated 2026)
